Laboratory results taken from patent US11371097B2, “Articles for diagnosis of liver fibrosis” (THE GOVERNMENT OF THE UNITED STATES, as represented by THE …, priority 2015, dated 2022).
Values joined by “and” are separate entries in the source; they are usually repeats but may differ in a detail not shown here. Identical values can stand only once. Like-named read-outs stand apart in the source and are kept apart here.

Assays:
liver [1] = conditions: cited from earlier work
[2] = system: 67 genes on the fibrosis gene panel; assay: Multiplexed fibrosis gene panel (QuantiGene 2.0 Plex / Bioplex) on liver RNA; conditions: liver, 67 genes
[3] = assay type: in vivo, Male Sprague-Dawley rats
Description: (§1) In vivo rat experiments were performed at Integrated Laboratory Systems (ILS, Research Triangle Park, NC). ILS's Institutional Animal Care and Use Committee approved all experimental procedures. Research was conducted in compliance with the Animal Welfare Act, and other Federal statutes and regulations relating to animals and experiments involving animals and adheres to principles stated in the “Guide for Care and Use of Laboratory Animals” as prepared by the Committee on Care and Use of Laboratory Animals of the Institute of Laboratory Animal Resources, National Research Council in facilities that are fully accredited by the Association for Assessment and Accreditation of Laboratory Animal Care, International. Male Sprague-Dawley rats (CD IGS [CRL:CD (SD)]) were purchased from Charles River Laboratories (Stone Ridge, N.Y.). Rats weighing 215-245 g (8 weeks old) were used. Briefly, rats were housed two per cage with a rat tunnel enrichment device (Bio-Serve, Frenchtown, N.J.). Rats were fed a Purina Rodent Diet No. 5002 (Ralston Purina Co., St. Louis, Mo.), supplied ad libitum. Animals received reverse osmosis-treated tap water (City of Durham, N.C.) ad libitum, which was changed at least once weekly. Controls in the animal rooms were set to maintain temperatures between 20-In vivo rat experiments were performed at Integrated Laboratory Systems (ILS, Research Triangle Park, NC). ILS's Institutional Animal Care and Use Committee approved all experimental procedures. Research was conducted in compliance with the Animal Welfare Act, and other Federal statutes and regulations relating to animals and experiments involving animals and adheres to principles stated in the “Guide for Care and Use of Laboratory Animals” as prepared by the Committee on Care and Use of Laboratory Animals of the Institute of Laboratory Animal Resources, National Research Council in facilities that are fully accredited by the Association for Assessment and Accreditation of Laboratory Animal Care, International. Male Sprague-Dawley rats (CD IGS [CRL:CD (SD)]) were purchased from Charles River Laboratories (Stone Ridge, N.Y.). Rats weighing 215-245 g (8 weeks old) were used. Briefly, rats were housed two per cage with a rat tunnel enrichment device (Bio-Serve, Frenchtown, N.J.). Rats were fed a Purina Rodent Diet No. 5002 (Ralston Purina Co., St. Louis, Mo.), supplied ad libitum. Animals received reverse osmosis-treated tap water (City of Durham, N.C.) ad libitum, which was changed at least once weekly. Controls in the animal rooms were set to maintain temperatures between 20-25° C. with a relative humidity of 30-70% and a 12-hour light/12-hour dark cycle, lights on at 6:00 AM. Clinically healthy animals were assigned to dose groups using a procedure that stratifies animals across groups by body weight such that mean body weight of each group was not statistically different from any other group using analysis of variance (Statistical Analysis System version 9.2, SAS Institute, Cary, N.C.). Animals were dosed by oral gavage for five consecutive days (+10 minutes from the previous day's dose administration time). Volume was based upon daily body weight.
(§2) Animals were observed cageside one hour following daily dose administration, then 1-2 times per day during dosing regimens. Body weights were measured daily prior to dose administration, and prior to euthanasia. Twenty-four hours after the final dose administration, animals were anesthetized with isoflurane then euthanized by exsanguination followed by decapitation. Livers were harvested at necropsy and weighed to within 0.1 g. One half of the left lobe of the liver was fixed in 10% formalin. The remaining half of the left lobe of the liver was flash frozen in liquid nitrogen, then stored below −70° C. Liver specimens were frozen in less than three minutes from time of death.

liver [4] = assay type: in vivo, Male Sprague-Dawley rats
Description: All chemical compounds were diluted in corn oil (CAS No. 8001-30-7) (MP Biomedicals, LLC (Solon, Ohio)). The dose volume was 5 mL/kg. Doses were selected based on doses published in the DrugMatrix database, the National Toxicology Program reports, and ATSDR reports.
as §1
as §2, with “The remaining half of the left lobe of the liver was flash frozen in liquid nitrogen, then stored below −70° C. Liver specimens were frozen in less than three minutes from time of death.” left out

Tgfb1 = assay: qPCR of liver RNA: Tgfb1; assay type: in vivo, Male Sprague-Dawley rats; conditions: liver, across dose groups, vs control
Description: (§3) Working on dry ice, a portion (−10 mg) of flash-frozen liver was cut from each sample and transferred to a clean, labeled tube. Total RNA was then isolated using Qiagen's miRNeasy 96 kit (Qiagen, Valencia, Calif.) following manufacturer's instructions with a final elution volume of −150 μL (2×75 μL). The quality and quantity of RNA samples were evaluated with a 2100 Bioanalyzer (Agilent Technologies, Santa Clara, Calif.), using the Agilent RNA 6000 Nano Reagents and a multiwell NanoDrop 8000 spectrophotometer (Thermo Fisher Scientific, Waltham, Mass.).
(§4) Using 1 μg RNA input, cDNA was generated using a QuantiTect Reverse Transcription kit (Qiagen, Valencia, Calif.) following manufacturer's instructions. Applied Biosystems SYBR Green Master Mix was used in a 20 μL qPCR reaction with 2 μL of cDNA template and a 2.tM final concentration of each primer. A total of five genes were targeted (Gapdh, Actb, Timp1, Tgfbl, and Psma5), two of which served as the endogenous controls (Gapdh and Actb). An Applied Biosystems 7500 Real-Time PCR System (Applied Biosystems, Foster City, Calif.) was used for thermal cycling and fluorescence detection using the default settings for Quantitation-Comparative CT with SYBR® . . . Green Reagents which uses the following scheme: 95° C. for 10 minutes followed by 40 cycles of: 95° C. for 15 seconds, 60° C. for 1 minute, and a fluorescence signal read. Al! primers were obtained from Integrated DNA Technology's PrimeTime qPCR primer library (Integrated DNA Technologies, Coralville, Iowa).
Data was imported into GraphPad Prism (GraphPad Software, Inc.; LaJolla, Calif.) for analysis. A nonparametric Kruskal-Wallis analysis of variance by ranks with post hoc […] multiple comparison test was used to determine statistical difference among dose groups. A one sample t-test compared to a theoretical mean of 1.0 fold change was used to determine difference from control for each dose group. A p-value<0.05 was used as a cutoff for statistical significance.

Timp1 = assay: qPCR of liver RNA: Timp1; assay type: in vivo, Male Sprague-Dawley rats; conditions: across dose groups, vs control
Description: as §3
as §4, with “Al! primers were obtained from Integrated DNA Technology's PrimeTime qPCR primer library (Integrated DNA Technologies, Coralville, Iowa).” left out

[5] = 5-7 days oral administration or intraperitoneal injection, various doses
[6] = Allyl Alcohol 9.7 mg/kg, animals 9-12
[7] = Allyl Alcohol 45 mg/kg, animals 17, 18, 20
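For Cytoplasmic Alteration in this document: Severity grades from None 0% through Minimal Mild Moderate to Marked over 80% tissue affected.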
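For Inflammation in this document: Severity grades from None 0% through Minimal Mild Moderate to Marked over 80% tissue affected.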
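For Vacuolation in this document: Severity grades from None 0% through Minimal Mild Moderate to Marked over 80% tissue affected.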

## C[C@]12CC[C@H]3[C@@H](CCC4=CC(=O)CC[C@@]43C)[C@@H]1CC[C@@H]2O [testosterone]
Liver [1]; [5]
  Fibrosis score in the DrugMatrix study: scored fibrosis-positive

## CC(C)(Oc1ccc(CCNC(=O)c2ccc(Cl)cc2)cc1)C(=O)O [bezafibrate]
Liver [1]; [5]
  Fibrosis score in the DrugMatrix study: scored fibrosis-positive

## allyl alcohol
[2]
  Hierarchical biclustering of log2 fold-changes in panel gene expression: clustered with the non-fibrogenic chemical-dose groups
[3]; dose groups
  Body weight gain over the five experimental dosing days: increase in body weight gain
[3]; highest dose(s)
  Body weight change over the five-day exposure interval: gained less weight over the five-day exposure interval than their low-dose counterparts
Liver [4]; [6]
  Bile Duct Hyperplasia and Fibroplasia: 0
  Cytoplasmic Alteration: 1
  Inflammation: 0
  Necrosis: 0
  Vacuolation: 0
Liver [4]; Allyl Alcohol 20.9 mg/kg, animals 13-16
  Vacuolation: 0
Liver [4]; [7]
  Bile Duct Hyperplasia and Fibroplasia: 3
  Cytoplasmic Alteration: 3 and 4 and 2
  Inflammation: 3 and 2
  Necrosis: 3 and 4
  Vacuolation: 0
Liver [4]; across dose groups, five days (figure legend)
  Combined histopathological scores as percent of animals with pathology: dose-dependent increase in severe pathology
Liver [4]; high doses
  Fibrosis histopathology in the present study: associated with fibrosis histopathology
Liver [4]; high doses, listed as Allyl alcohol
  Fibrosis histopathology in the present study: scored positive for fibrosis
Liver [4]; low-dose (carbon tetrachloride: all doses)
  Fibrosis histopathology: without fibrosis
Liver [4]; oral gavage five days, across doses
  Degree of fibrosis: dose-dependent increase in the degree of fibrosis
Liver [4]; oral gavage five days, high doses
  Histopathology: bile duct hyperplasia, fibrosis, necrosis: caused bile duct hyperplasia comorbid with fibrosis and necrosis
Tgfb1
  Tgfb1 gene expression by qPCR: showed a dose-dependent increase
Liver [1]; [5]
  Fibrosis score in the DrugMatrix study: scored fibrosis-positive
Timp1
  Timp1 gene expression by qPCR: showed a dose-dependent increase

## CC=CC(=O)N(CC)c1ccccc1C [crotamiton]
Liver [1]; [5]
  Fibrosis score in the DrugMatrix study: scored fibrosis-positive

## S=C=Nc1cccc2ccccc12 [1-naphthyl isothiocyanate]
Liver [1]; rat, in vivo
  Fibrosis score in the DrugMatrix study: scored fibrosis-positive

## COc1ccccc1OCCNCC(O)COc1cccc2[nH]c3ccccc3c12 (stereo not shown) [carvedilol]
Liver [1]; [5]
  Fibrosis score in the DrugMatrix study: scored fibrosis-positive
